Assay results from patent US20090169635A1, “PHARMACEUTICAL COMPOSITIONS AND USE THEREOF” (priority 2007, published 2009).
Where a name gives a salt, the structure may show the parent alone.

Tests used:
[1] = system: Staphylococcus pneumoniae (ATCC 6301); assay: Bacterial pneumonia model: mice inoculated intratracheally, single intravenous treatment 20 hours later, mortality recorded for 10 days; format: in vivo, Male CD-1 mice; conditions: Vancomycin dose 1 mg/kg i.v.
Description: An investigation of the antibacterial efficacy of nanoparticulate forms of parenterally administered Vancomycin was carried out in comparison with conventional parenteral Vancomycin […] for injection,
Bacteria: […] (ATCC #6301), Gram-positive serotype
Animals: Male CD-1 (Charles River Laboratory) mice weighing 24±2 g provided are used. Space allocation for animals is 45×23×21 cm for 10 mice. The animals are housed in animal cages and are maintained in a hygienic environment under controlled temperature (22°-23° C.) and humidity (50% -60%) with 12 hours light/dark cycles for at least one week in the laboratory prior to initiation of the study. Free access to standard lab food and water supply is allowed.
Pneumonia model: Mice were inoculated intratracheally (IT) with a LD90-100 of […] pneumoniae (ATCC 6301) (9.7×10^6 […]) in 40 μl PBS. In 16 hours, all mice developed pronounced pneumonia, confirmed by histological observation. Test formulations and vehicle were diluted with 5% sterile dextrose and administered intravenously to animals 20 hours after bacterial inoculation. Mortality was recorded once daily for 10 days.

[2] = cited from earlier work
[3] = system: Mycobacterium tuberculosis strain H37RV (ATCC 27294); assay: Tuberculosis model: mice inoculated intravenously with M. tuberculosis, treated intraperitoneally for 4 weeks, observed to D56; format: in vivo, BALB/C female mice; conditions: for Numbers of deaths: 4 weeks
[4] = system: Mycobacter avium complex (MAC); conditions: 100 mg/kg IM five days a week for four weeks; cited from earlier work
[5] = 100 mg/kg i.p., 2 x week, cumulative 800 mg/kg
[6] = 200 mg/kg i.p., 5 x week, cumulative 4000 mg/kg
[7] = D56, 200 mg/kg i.p., 5 x week for 4 weeks

Compound: Vancomycin sulfate [Vancomycin injection (USP)]
- Mortality ([1]; 10 days): 70%
- Survival ([1]; 10 days): 30%
- Day 1 (deaths recorded that day) ([1]; n=10, Day 1): 0
- Day 2 (deaths recorded that day) ([1]; n=10, Day 2): 0
- Day 3 (deaths recorded that day) ([1]; n=10, Day 3): 0
- Day 4 (deaths recorded that day) ([1]; n=10, Day 4): 1
- Day 5 (deaths recorded that day) ([1]; n=10, Day 5): 3
- Day 6 (deaths recorded that day) ([1]; n=10, Day 6): 2
- Day 7 (deaths recorded that day) ([1]; n=10, Day 7): 0
- Day 8 (deaths recorded that day) ([1]; n=10, Day 8): 1
- Day 9 (deaths recorded that day) ([1]; n=10, Day 9): 0
- Day 10 (deaths recorded that day) ([1]; n=10, Day 10): 0
- concentration in epithelial lining fluid ([2]; patients, lung epithelial lining fluid versus plasma): ≤ 20 % of plasma levels
- patients with inadequate concentrations ([2]; standard dosage (1 g twice daily)): approximately 40 % of patients

Compound: [H]/N=C(/N)N[C@H]1[C@H](O)[C@@H](O)[C@H](O[C@@H]2O[C@@H](C)[C@](O)(C=O)[C@H]2O[C@@H]2O[C@@H](CO)[C@H](O)[C@@H](O)[C@@H]2NC)[C@@H](N/C(N)=N\[H])[C@@H]1O [Streptomycin USP, Streptomycin sulfate]
- Numbers of deaths ([3]; 100 mg/kg i.p., 2 x week, cumulative 800 mg/kg SM base): 5/12
- Survival rate (%) 14 d [3, 5]: 83%
- Survival rate (%) 28 d [3, 5]: 58%
- Survival rate (%) 56 d [3, 5]: 58%
- Numbers of deaths ([3]; 200 mg/kg i.p., 5 x week, cumulative 4000 mg/kg SM base): 1/12
- Survival rate (%) 14 d [3, 6]: 92%
- Survival rate (%) 28 d [3, 6]: 92%
- Survival rate (%) 56 d [3, 6]: 92%
- Body weight ([3]; D14, 100 mg/kg i.p., 2 x week): 14.90 ± 1.83 g
- Log (CFU/Lung) ([3]; D14, 100 mg/kg i.p., 2 x week): 8.16 ± 0.25 Log (CFU/Lung)
- Log (CFU/Spleen) ([3]; D14, 100 mg/kg i.p., 2 x week): 7.55 ± 0.26 Log (CFU/Spleen)
- Body weight ([3]; D14, 200 mg/kg i.p., 5 x week): 16.22 ± 0.39 g
- Log (CFU/Lung) ([3]; D14, 200 mg/kg i.p., 5 x week): 7.85 ± 0.14 Log (CFU/Lung)
- Log (CFU/Spleen) ([3]; D14, 200 mg/kg i.p., 5 x week): 6.90 ± 0.08 Log (CFU/Spleen)
- Body weight ([3]; D28, 100 mg/kg i.p., 2 x week): 16.73 ± 2.64 g
- Log (CFU/Lung) ([3]; D28, 100 mg/kg i.p., 2 x week): 8.37 ± 0.36 Log (CFU/Lung)
- Log (CFU/Spleen) ([3]; D28, 100 mg/kg i.p., 2 x week): 7.48 ± 0.51 Log (CFU/Spleen)
- Body weight ([3]; D28, 200 mg/kg i.p., 5 x week): 19.62 ± 0.29 g
- Log (CFU/Lung) ([3]; D28, 200 mg/kg i.p., 5 x week): 7.57 ± 0.26 Log (CFU/Lung)
- Log (CFU/Spleen) ([3]; D28, 200 mg/kg i.p., 5 x week): 6.66 ± 0.28 Log (CFU/Spleen)
- Body weight [3, 7]: 17.85 ± 1.15 g
- Log (CFU/Lung) [3, 7]: 8.86 ± 0.18 Log (CFU/Lung)
- Log (CFU/Spleen) [3, 7]: 7.21 ± 0.23 Log (CFU/Spleen)
- bacterial count of MAC from spleen, lungs and liver [4]: significant reduction in bacterial count
